According to patent US20260022142A1, “MACROCYCLIC IMMUNOMODULATORS” (Bristol-Myers Squibb Company, priority 2022, published 2026):
Bridge positions count the residues as written; N and C are the ends. Square brackets hold non-standard residues; d marks the D form. Peptide text beside a SMILES is read from it. * marks the point of attachment. ξ: configuration not given here. ξPhe(4-guanidino) = N=C(N)Nc1ccc(CC(N)C(=O)O)cc1; Phe(3-CONH2) = NC(=O)c1cccc(C[C@H](N)C(=O)O)c1; Bip = N[C@@H](Cc1ccc(-c2ccccc2)cc1)C(=O)O; NH(CH2)14COOH = O=C(O)CCCCCCCCCCCCCCN*; Phe(3-Me) = Cc1cccc(C[C@H](N)C(=O)O)c1; NH(CH2)12COOH = O=C(O)CCCCCCCCCCCCN*; Cha = N[C@@H](CC1CCCCC1)C(=O)O; Cit = NC(=O)NCCC[C@H](N)C(=O)O; Ile(3ξ) = CCC(C)[C@H](N)C(=O)O; Thr(3ξ) = CC(O)[C@H](N)C(=O)O; 12Ado = NCCCCCCCCCCCC(=O)O; Carboxymethyl = O=C(O)C*; Orn = NCCC[C@H](N)C(=O)O; Aun = NCCCCCCCCCCC(=O)O; Dab = NCC[C@H](N)C(=O)O; Dap = NC[C@H](N)C(=O)O; AEEA = NCCOCCOCC(=O)O

Target: T1, PD-1/PD-L1 interaction (PE-labeled human PD-L1-Ig binding to Jurkat cell line over-expressing human PD-1) (Homo sapiens, UniProt Q15116)
T1 construct: expressed in transfected cells; host or cells: Jurkat
T1 sequence (Q15116 25-288): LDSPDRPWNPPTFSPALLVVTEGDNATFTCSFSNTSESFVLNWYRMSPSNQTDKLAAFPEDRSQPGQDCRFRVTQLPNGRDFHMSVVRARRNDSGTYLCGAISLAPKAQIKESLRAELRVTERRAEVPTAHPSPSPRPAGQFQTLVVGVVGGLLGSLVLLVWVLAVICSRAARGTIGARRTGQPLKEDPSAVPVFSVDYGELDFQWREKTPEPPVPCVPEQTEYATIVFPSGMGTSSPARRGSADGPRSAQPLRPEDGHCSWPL
Test: Jurkat-PD-1 Cell Binding High-Content Screening Assay (CBA)
Format: cell-based
Details: Jurkat cell line over-expressing human PD-1; PE-labeled PD-L1-Ig 20 nM final; read-out: Jurkat hPD1-PDL1 IC50
Method in brief: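 Jurkat-hPD-1 cells, DMEM/10% FCS; cpd 2 h 37° C; PE-PD-L1-Ig 20 nM final, 1 h; 4% PFA fix + Hoechst 33342, 3× dPBS wash; high-content imaging read-out.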

Row | Compound | IC50 [nM]
1 | CCC(C)[C@@H]1NC(=O)[C@H](Cc2ccc(-c3ccccc3)cc2)NC(=O)[C@H](C(C)C)NC(=O)[C@H](Cc2c[nH]c3ccccc23)NC(=O)[C@H](CC(=O)O)NC(=O)[C@H](Cc2ccc(OCC(=O)O)cc2)NC(=O)[C@H](CO)NC(=O)CSC[C@@H](C(=O)N[C@@H](CCCN)C(=O)NCCCCCCCCCCC(=O)O)NC(=O)[C@H](C(C)O)NC(=O)[C@H](C(C)C)NC(=O)[C@H](CC2CCCCC2)NC(=O)[C@H](CCN)NC(=O)[C@@H](CC(C)C)NC(=O)[C@H](CCCN)NC1=O (stereo partly drawn) [Compound 3099] ({CH2CO}-SY(Carboxymethyl)DWV[Bip][Ile(3ξ)][Orn][dL][Dab][Cha]V[Thr(3ξ)]C[Orn][Aun]-OH; thioether N-14) | 19.1
2 | CCC(C)[C@@H]1NC(=O)[C@H](CC2CCCCC2)NC(=O)[C@H](CCN)NC(=O)[C@@H](CC(C)C)NC(=O)[C@H](CCCN)NC(=O)[C@H](C(C)CC)NC(=O)[C@H](Cc2ccc(-c3ccccc3)cc2)NC(=O)[C@H](CC(C)C)NC(=O)[C@H](Cc2c[nH]c3ccccc23)NC(=O)[C@H](CC(=O)O)NC(=O)[C@H](Cc2ccc(OCC(=O)O)cc2)NC(=O)[C@H](Cc2cccc(C(N)=O)c2)NC(=O)CSC[C@@H](C(=O)N[C@@H](CC(N)=O)C(=O)NCCOCCOCC(=O)NCCCCCCCCCCC(=O)O)NC(=O)[C@H](CO)NC1=O (stereo partly drawn) [Compound 3116] ({CH2CO}-[Phe(3-CONH2)]Y(Carboxymethyl)DWL[Bip][Ile(3ξ)][Orn][dL][Dab][Cha][Ile(3ξ)]SCN[AEEA][Aun]-OH; thioether N-14) | 43.4
3 | CCC(C)[C@@H]1NC(=O)[C@H](CC2CCCCC2)NC(=O)[C@H](CCN)NC(=O)[C@@H](CC(C)C)NC(=O)[C@H](CCCN)NC(=O)[C@H](C(C)CC)NC(=O)[C@H](Cc2ccc(-c3ccccc3)cc2)NC(=O)[C@H](CC(C)C)NC(=O)[C@H](Cc2c[nH]c3ccccc23)NC(=O)[C@H](CC(=O)O)NC(=O)[C@H](Cc2ccc(OCC(=O)O)cc2)NC(=O)C(Cc2ccc(N=C(N)N)cc2)NC(=O)CSC[C@@H](C(=O)N[C@@H](CC(N)=O)C(=O)NCCOCCOCC(=O)NCCCCCCCCCCC(=O)O)NC(=O)[C@H](CO)NC1=O (stereo partly drawn) [Compound 3117] ({CH2CO}-[ξPhe(4-guanidino)]Y(Carboxymethyl)DWL[Bip][Ile(3ξ)][Orn][dL][Dab][Cha][Ile(3ξ)]SCN[AEEA][Aun]-OH; thioether N-14) | 160
4 | CCC(C)[C@@H]1NC(=O)[C@H](CC2CCCCC2)NC(=O)[C@H](CCN)NC(=O)[C@@H](CC(C)C)NC(=O)[C@H](CCCN)NC(=O)[C@H](C(C)CC)NC(=O)[C@H](Cc2ccc(-c3ccccc3)cc2)NC(=O)[C@H](C(C)CC)NC(=O)[C@H](Cc2c[nH]c3ccccc23)NC(=O)[C@H](CC(=O)O)NC(=O)[C@H](Cc2ccc(OCC(=O)O)cc2)NC(=O)[C@H](C(C)O)NC(=O)CSC[C@@H](C(=O)N[C@H](CC(N)=O)C(=O)NCCOCCOCC(=O)N2CCC[C@@H]2C(=O)NCCCCCCCCCCC(=O)O)NC(=O)[C@H](CO)NC1=O (stereo partly drawn) [Compound 3118] ({CH2CO}-[Thr(3ξ)]Y(Carboxymethyl)DW[Ile(3ξ)][Bip][Ile(3ξ)][Orn][dL][Dab][Cha][Ile(3ξ)]SC[dN][AEEA][dP][Aun]-OH; thioether N-14) | 30.4
5 | CCC(C)[C@@H]1NC(=O)[C@H](CC2CCCCC2)NC(=O)[C@H](CCN)NC(=O)[C@@H](CC(C)C)NC(=O)[C@H](CCCN)NC(=O)[C@H](C(C)CC)NC(=O)[C@H](Cc2ccc(-c3ccccc3)cc2)NC(=O)[C@H](C(C)CC)NC(=O)[C@H](Cc2c[nH]c3ccccc23)NC(=O)[C@H](CC(=O)O)NC(=O)[C@H](Cc2ccc(OCC(=O)O)cc2)NC(=O)[C@H](C(C)O)NC(=O)CSC[C@@H](C(=O)N[C@H](CC(N)=O)C(=O)NCCOCCOCC(=O)N[C@@H](Cc2c[nH]cn2)C(=O)NCCCCCCCCCCC(=O)O)NC(=O)[C@H](CO)NC1=O (stereo partly drawn) [Compound 3119] ({CH2CO}-[Thr(3ξ)]Y(Carboxymethyl)DW[Ile(3ξ)][Bip][Ile(3ξ)][Orn][dL][Dab][Cha][Ile(3ξ)]SC[dN][AEEA]H[Aun]-OH; thioether N-14) | 24.6
6 | CCC(C)[C@@H]1NC(=O)[C@H](CC2CCCCC2)NC(=O)[C@H](CCN)NC(=O)[C@@H](CC(C)C)NC(=O)[C@H](CCCN)NC(=O)[C@H](C(C)CC)NC(=O)[C@H](Cc2ccc(-c3ccccc3)cc2)NC(=O)[C@H](C(C)CC)NC(=O)[C@H](Cc2c[nH]c3ccccc23)NC(=O)[C@H](CC(=O)O)NC(=O)[C@H](Cc2ccc(OCC(=O)O)cc2)NC(=O)[C@H](C(C)O)NC(=O)CSC[C@@H](C(=O)N[C@H](CC(N)=O)C(=O)NCCOCCOCC(=O)N[C@@H](CCCN)C(=O)NCCCCCCCCCCC(=O)O)NC(=O)[C@H](CO)NC1=O (stereo partly drawn) [Compound 3120] ({CH2CO}-[Thr(3ξ)]Y(Carboxymethyl)DW[Ile(3ξ)][Bip][Ile(3ξ)][Orn][dL][Dab][Cha][Ile(3ξ)]SC[dN][AEEA][Orn][Aun]-OH; thioether N-14) | 24.8
7 | CCC(C)[C@@H]1NC(=O)[C@H](CC2CCCCC2)NC(=O)[C@H](CCN)NC(=O)[C@@H](CC(C)C)NC(=O)[C@H](CCCN)NC(=O)[C@H](C(C)CC)NC(=O)[C@H](Cc2ccc(-c3ccccc3)cc2)NC(=O)[C@H](C(C)CC)NC(=O)[C@H](Cc2c[nH]c3ccccc23)NC(=O)[C@H](CC(=O)O)NC(=O)[C@H](Cc2ccc(OCC(=O)O)cc2)NC(=O)[C@H](C(C)O)NC(=O)CSC[C@@H](C(=O)N[C@@H](CN)C(=O)NCCOCCOCC(=O)N[C@@H](CCCN)C(=O)NCCCCCCCCCCC(=O)O)NC(=O)[C@H](CO)NC1=O (stereo partly drawn) [Compound 3121] ({CH2CO}-[Thr(3ξ)]Y(Carboxymethyl)DW[Ile(3ξ)][Bip][Ile(3ξ)][Orn][dL][Dab][Cha][Ile(3ξ)]SC[Dap][AEEA][Orn][Aun]-OH; thioether N-14) | 10.4
8 | Cc1cccc(C[C@@H]2NC(=O)[C@H](CC(=O)O)NC(=O)[C@H](Cc3ccc(OCC(=O)O)cc3)NC(=O)[C@H](CN)NC(=O)CSC[C@@H](C(=O)N[C@@H](CCCN)C(=O)NCCCCCCCCCCCC(=O)O)NC(=O)[C@H](C(C)O)NC(=O)[C@H](C(C)C)NC(=O)[C@H](CC3CCCCC3)NC(=O)[C@H](CCN)NC(=O)[C@@H](CC(C)C)NC(=O)[C@H](CCCN)NC(=O)[C@H](CCCNC(N)=O)NC(=O)[C@H](Cc3ccc(-c4ccccc4)cc3)NC(=O)[C@H](C(C)C)NC2=O)c1 (stereo partly drawn) [Compound 3122] ({CH2CO}-[Dap]Y(Carboxymethyl)D[Phe(3-Me)]V[Bip][Cit][Orn][dL][Dab][Cha]V[Thr(3ξ)]C[Orn][12Ado]-OH; thioether N-14) | 19.3
9 | Cc1cccc(C[C@@H]2NC(=O)[C@H](CC(=O)O)NC(=O)[C@H](Cc3ccc(OCC(=O)O)cc3)NC(=O)[C@H](CN)NC(=O)CSC[C@@H](C(=O)N[C@@H](CCCN)C(=O)NCCCCCCCCCCCCC(=O)O)NC(=O)[C@H](C(C)O)NC(=O)[C@H](C(C)C)NC(=O)[C@H](CC3CCCCC3)NC(=O)[C@H](CCN)NC(=O)[C@@H](CC(C)C)NC(=O)[C@H](CCCN)NC(=O)[C@H](CCCNC(N)=O)NC(=O)[C@H](Cc3ccc(-c4ccccc4)cc3)NC(=O)[C@H](C(C)C)NC2=O)c1 (stereo partly drawn) [Compound 3123] ({CH2CO}-[Dap]Y(Carboxymethyl)D[Phe(3-Me)]V[Bip][Cit][Orn][dL][Dab][Cha]V[Thr(3ξ)]C[Orn]-{NH(CH2)12COOH}; thioether N-14) | 82.9
10 | Cc1cccc(C[C@@H]2NC(=O)[C@H](CC(=O)O)NC(=O)[C@H](Cc3ccc(OCC(=O)O)cc3)NC(=O)[C@H](CN)NC(=O)CSC[C@@H](C(=O)N[C@@H](CCCN)C(=O)NCCCCCCCCCCCCCCC(=O)O)NC(=O)[C@H](C(C)O)NC(=O)[C@H](C(C)C)NC(=O)[C@H](CC3CCCCC3)NC(=O)[C@H](CCN)NC(=O)[C@@H](CC(C)C)NC(=O)[C@H](CCCN)NC(=O)[C@H](CCCNC(N)=O)NC(=O)[C@H](Cc3ccc(-c4ccccc4)cc3)NC(=O)[C@H](C(C)C)NC2=O)c1 (stereo partly drawn) [Compound 3124] ({CH2CO}-[Dap]Y(Carboxymethyl)D[Phe(3-Me)]V[Bip][Cit][Orn][dL][Dab][Cha]V[Thr(3ξ)]C[Orn]-{NH(CH2)14COOH}; thioether N-14) | 281
11 | Cc1cccc(C[C@@H]2NC(=O)[C@H](CC(=O)O)NC(=O)[C@H](Cc3ccc(OCC(=O)O)cc3)NC(=O)[C@H](CN)NC(=O)CSC[C@@H](C(=O)N[C@@H](CCN)C(=O)NCCCCCCCCCCCC(=O)O)NC(=O)[C@H](C(C)O)NC(=O)[C@H](C(C)C)NC(=O)[C@H](CC3CCCCC3)NC(=O)[C@H](CCN)NC(=O)[C@@H](CC(C)C)NC(=O)[C@H](CCCN)NC(=O)[C@H](CCCNC(N)=O)NC(=O)[C@H](Cc3ccc(-c4ccccc4)cc3)NC(=O)[C@H](C(C)C)NC2=O)c1 (stereo partly drawn) [Compound 3125] ({CH2CO}-[Dap]Y(Carboxymethyl)D[Phe(3-Me)]V[Bip][Cit][Orn][dL][Dab][Cha]V[Thr(3ξ)]C[Dab][12Ado]-OH; thioether N-14) | 29.1
12 | Cc1cccc(C[C@@H]2NC(=O)[C@H](CC(=O)O)NC(=O)[C@H](Cc3ccc(OCC(=O)O)cc3)NC(=O)[C@H](CN)NC(=O)CSC[C@@H](C(=O)N[C@@H](CCN)C(=O)NCCCCCCCCCCCCCCC(=O)O)NC(=O)[C@H](C(C)O)NC(=O)[C@H](C(C)C)NC(=O)[C@H](CC3CCCCC3)NC(=O)[C@H](CCN)NC(=O)[C@@H](CC(C)C)NC(=O)[C@H](CCCN)NC(=O)[C@H](CCCNC(N)=O)NC(=O)[C@H](Cc3ccc(-c4ccccc4)cc3)NC(=O)[C@H](C(C)C)NC2=O)c1 (stereo partly drawn) [Compound 3127] ({CH2CO}-[Dap]Y(Carboxymethyl)D[Phe(3-Me)]V[Bip][Cit][Orn][dL][Dab][Cha]V[Thr(3ξ)]C[Dab]-{NH(CH2)14COOH}; thioether N-14) | 308
13 | CC(C)C[C@H]1NC(=O)[C@H](CCCN)NC(=O)[C@H](C(C)C)NC(=O)[C@H](Cc2ccc(-c3ccccc3)cc2)NC(=O)[C@H](C(C)C)NC(=O)[C@H](Cc2c[nH]c3ccccc23)NC(=O)[C@H](CC(=O)O)NC(=O)[C@H](Cc2ccc(OCC(=O)O)cc2)NC(=O)[C@H](CN)NC(=O)CSC[C@@H](C(=O)NCCOCCOCC(=O)N[C@@H](CCCCN)C(=O)NCCCCCCCCCCC(=O)O)NC(=O)[C@H](C(C)O)NC(=O)[C@H](C(C)C)NC(=O)[C@H](CC2CCCCC2)NC(=O)[C@H](CC(N)=O)NC1=O (stereo partly drawn) [Compound 3128] ({CH2CO}-[Dap]Y(Carboxymethyl)DWV[Bip]V[Orn][dL]N[Cha]V[Thr(3ξ)]C[AEEA]K[Aun]-OH; thioether N-14) | 15.5
